Source: US20250197864A1, “LNCRNA TRANSCRIPTS IN MELANOMAGENESIS” (The Regents of the University of California, priority 2021, published 2025)

Key:
[1] = system: Caspase 3+7; experiment: Caspase Glo 3/7 assay in D04 cell line; format: cell-based, human; settings: ASO 50 nM, 1 day, vs control ASOs
Method: Dependent on cell doubling time, 2-3×10^^3 cells were seeded in 96 well plates. 1 day after seeding cells were incubated in media with 50 nM oligonucleotide concentration and transfection reagent. 1 day after transfection Total luminescence was measured on the SynergyHT plate reader (BioTek) using Gen5 software. Experiments were performed in quadruplicates.

[2] = system: D04 cells; experiment: Repetition of drug treatment in surviving D04 cells (drug resistance test); format: cell-based, human; settings: TRASH-ASO 50 nM or MEKi 15 nM (or 20 nM), recovery in drug free media, five days (120 hrs)
Method: Dependent on cell doubling time, 0.7-2×10^^3 cells were seeded in 96 well plates. 1 day after seeding cells were incubated in media with oligonucleotide concentration and/or MEKi and transfection reagent. 3 (synergy experiments) or 5 (solely ASO) days after transfection Total luminescence was measured on the SynergyHT plate reader (BioTek) using Gen5 software.
Rescuing cells that survived initial TRASH-ASO (SEQ ID NO:15) and MEKi (trametinib) treatment and providing the rescued cells with a phase of regrowth in drug free media, was followed by repetition of the preceding drug treatment. […] Incubation time was 120 hrs, n=3. (FIG. 5d).

GACTGGAGATAATTAA (gapmer, pattern not given here) [SEQ ID NO: 15, GapmeR ASO targeting AC004540.4 (TRASH), exon region of both isoforms; used for in vitro experiments]
Caspase-3 &-7 activity increase [1]: 3.0 fold
cell-growth reduction on repetition of the preceding drug treatment in surviving cells ([2]; n=3, listed as SEQ ID NO:15): increased vulnerability
cell-growth reduction on repetition of the preceding drug treatment in surviving cells ([2]; n=3, listed as TRASH-ASO): significantly increased (p=0.004) cell-growth reduction
